Source: ChEMBL document CHEMBL1121427, “Decomposition of pharmacological activity indices into mutually independent components using principal component analysis” (J Med Chem, 1980)

Legend:
[1] = -Log C was determined by performing the incl screen test; assay type: ADME; design: unit not given here
[2] = -Log C was determined by performing the maximum electroshock test; assay type: ADME; design: unit not given here
[3] = -Log C was determined by performing the foot shock test; assay type: ADME; design: unit not given here
[4] = -Log C was determined by performing the electroshock minimum test; assay type: ADME; design: unit not given here
[5] = -Log C was determined by performing the pentylenetetrazole test; assay type: ADME; design: unit not given here
Staphylococcus aureus = experiment: The compound was evaluated for activity against strain Micrococcus aureus; assay type: functional; design: unit not given here
Streptococcus pyogenes = experiment: The compound was evaluated for activity against strain Streptococcus hemolyticus; assay type: functional; design: unit not given here
Enterococcus faecalis = experiment: The compound was evaluated for activity against strain Streptococcus faecalis; assay type: functional; design: unit not given here
Bacillus subtilis = experiment: Inhibitory activity against Bacillus subtilis; assay type: functional; design: unit not given here
Aspergillus niger = experiment: The compound was evaluated for activity against Aspergillus niger; assay type: functional
Trichoderma viride = experiment: The compound was evaluated for activity against Trichoderma viride; assay type: functional; design: unit not given here
Albifimbria verrucaria = experiment: The compound was evaluated for activity against Myrothecium verrucaria; assay type: functional; design: unit not given here
Trichophyton benhamiae = experiment: The compound was evaluated for activity against Trichophyton mentagrophytes; assay type: functional, Arthroderma benhamiae
Aspergillus oryzae = experiment: The compound was evaluated for activity against Aspergillus oryzae; assay type: functional; design: unit not given here

Compound | -Log C (Staphylococcus aureus) | -Log C (Streptococcus pyogenes) | -Log C (Enterococcus faecalis) | -Log C (Bacillus subtilis) | -Log C (Aspergillus niger) [mM l-1] | -Log C (Trichoderma viride) | -Log C (Albifimbria verrucaria) | -Log C (Trichophyton benhamiae) [mM l-1] | -Log C (Aspergillus oryzae) | also measured
CN(C)c1ccc2c(c1)C(c1ccccc1)=NCC(=O)N2C |  |  |  |  |  |  |  |  |  | -Log C [1]: 0.29; -Log C [2]: 0.5; -Log C [3]: 0.87; -Log C [4]: 0.06; -Log C [5]: 1.7
COC1/C=C/OC2(C)Oc3c(C)c(O)c4c(O)c(cc(OCC(=O)NC(C)(C)C)c4c3C2=O)NC(=O)/C(C)=C\C=C\C(C)C(O)C(C)C(O)C(C)C(OC(C)=O)C1C (configuration not stated) | 6.73 | 6.43 | 5.83 | 5.42 |  |  |  |  |  | 
O=[N+]([O-])c1cc(I)c2cccnc2c1O |  |  |  |  | 0.7 | 0.89 | 0.6 | 1.89 | 0.57 | 
O=[N+]([O-])c1cc(F)c2cccnc2c1O |  |  |  |  | 1.06 | 1.06 | 1.02 | 1.72 | 0.85 | 
Oc1c(Br)cc(Cl)c2cccnc12 |  |  |  |  | 1.92 |  |  | 2.11 |  | 
COC1/C=C/OC2(C)Oc3c(C)c(O)c4c(O)c(cc(OCC(=O)N(C)CCC#N)c4c3C2=O)NC(=O)/C(C)=C\C=C\C(C)C(O)C(C)C(O)C(C)C(OC(C)=O)C1C (configuration not stated) | 6.97 | 6.97 | 6.05 | 5.74 |  |  |  |  |  | 
COC1/C=C/OC2(C)Oc3c(C)c(O)c4c(O)c(cc(OCC(=O)N5C(C)COCC5C)c4c3C2=O)NC(=O)/C(C)=C\C=C\C(C)C(O)C(C)C(O)C(C)C(OC(C)=O)C1C (configuration not stated) | 7.93 | 7.76 | 6.98 | 6.15 |  |  |  |  |  | 
COC1/C=C/OC2(C)Oc3c(C)c(O)c4c(O)c(cc(OCC(=O)N(C)C5CCCC5)c4c3C2=O)NC(=O)/C(C)=C\C=C\C(C)C(O)C(C)C(O)C(C)C(OC(C)=O)C1C (configuration not stated) | 8.14 | 8.22 | 7.22 | 6.36 |  |  |  |  |  | 
O=[N+]([O-])c1cc(Cl)c(O)c2ncccc12 |  |  |  |  | 0.89 |  |  | 2.35 |  | 
Oc1c(F)cc(F)c2cccnc12 |  |  |  |  | 1.36 |  |  | 1.66 |  | 
CC(C)(C)N1C(=O)CN=C(c2ccccc2)c2cc(Cl)ccc21 |  |  |  |  |  |  |  |  |  | -Log C [1]: 0.19; -Log C [2]: 0.26; -Log C [3]: 0.51; -Log C [4]: 0.39; -Log C [5]: 0.39
COC1/C=C/OC2(C)Oc3c(C)c(O)c4c(O)c(cc(OCC(=O)N5CCOCC5C)c4c3C2=O)NC(=O)/C(C)=C\C=C\C(C)C(O)C(C)C(O)C(C)C(OC(C)=O)C1C (configuration not stated) | 7.92 | 8.36 | 6.22 | 6.67 |  |  |  |  |  | 
O=[N+]([O-])c1cc(Br)c(O)c2ncccc12 |  |  |  |  | 1.01 | 1.32 | 1.72 | 2.43 | 0.66 | 
COC1/C=C/OC2(C)Oc3c(C)c(O)c4c(O)c(cc(OCC(=O)N(Cc5ccccc5)Cc5ccccc5)c4c3C2=O)NC(=O)/C(C)=C\C=C\C(C)C(O)C(C)C(O)C(C)C(OC(C)=O)C1C (configuration not stated) | 8.49 | 7.89 | 7.49 | 6.89 |  |  |  |  |  | 
Oc1c(Cl)ccc2cccnc12 |  |  |  |  | 1.77 |  |  | 2.25 |  | 
Oc1c(Br)ccc2cccnc12 |  |  |  |  | 1.89 | 2.35 | 2.35 | 2.35 | 1.89 | 
Oc1c(Cl)cc(F)c2cccnc12 |  |  |  |  | 1.82 | 2.29 | 2.29 | 2.3 | 1.7 | 
Oc1c(F)cc(I)c2cccnc12 |  |  |  |  | 2 | 2 | 2.46 | 2.46 | 1.46 | 
Nc1cc(Br)c2cccnc2c1O |  |  |  |  | 0.57 | 0.92 | 0.96 | 1.6 | 0.68 | 
Oc1c(F)cc(Cl)c2cccnc12 |  |  |  |  | 2 | 2.29 | 2.29 | 2.3 | 1.7 | 
COC1/C=C/OC2(C)Oc3c(C)c(O)c4c(O)c(cc(OCC(=O)N5CCCCC5C)c4c3C2=O)NC(=O)/C(C)=C\C=C\C(C)C(O)C(C)C(O)C(C)C(OC(C)=O)C1C (configuration not stated) | 8.22 | 7.92 | 7.45 | 6.67 |  |  |  |  |  | 
O=[N+]([O-])c1cc(Br)c2cccnc2c1O |  |  |  |  | 0.62 | 1.13 | 1.13 | 2.43 | 0.66 | 
CCCN(CC)C(=O)COc1cc2c(O)c3c(O)c(C)c4c(c13)C(=O)C(C)(O/C=C/C(OC)C(C)C(OC(C)=O)C(C)C(O)C(C)C(O)C(C)/C=C/C=C(/C)C(=O)N2)O4 (configuration not stated) | 8.01 | 8.22 | 7.22 | 6.35 |  |  |  |  |  | 

Compound | -Log C (Staphylococcus aureus) | -Log C (Streptococcus pyogenes) | -Log C (Enterococcus faecalis) | -Log C (Bacillus subtilis) | -Log C (Aspergillus niger) [mM l-1] | -Log C (Trichoderma viride) | -Log C (Albifimbria verrucaria) | -Log C (Trichophyton benhamiae) [mM l-1] | -Log C (Aspergillus oryzae) | also measured
Oc1c(Cl)cc(Br)c2cccnc12 |  |  |  |  | 2.11 | 2.41 | 2.41 | 2.41 | 1.82 | 
Oc1c(F)cc(Br)c2cccnc12 |  |  |  |  | 1.92 | 1.92 | 2.39 | 2.39 | 1.62 | 
Nc1cc(I)c2cccnc2c1O |  |  |  |  | 1.15 | 1.21 | 1.51 | 2.21 | 1.03 | 
CCN(CCO)C(=O)COc1cc2c(O)c3c(O)c(C)c4c(c13)C(=O)C(C)(O/C=C/C(OC)C(C)C(OC(C)=O)C(C)C(O)C(C)C(O)C(C)/C=C/C=C(/C)C(=O)N2)O4 (configuration not stated) | 7.52 | 6.96 | 6.18 | 5.73 |  |  |  |  |  | 
Oc1c(I)cc(F)c2cccnc12 |  |  |  |  | 2 | 2.46 | 1.16 | 2.46 | 2.62 | 
Oc1c(Br)cc(I)c2cccnc12 |  |  |  |  | 2.07 | 2.24 | 2.24 | 2.24 | 1.85 | 
CN1C(=O)CN=C(c2ccccc2)c2cc(C#N)ccc21 |  |  |  |  |  |  |  |  |  | -Log C [1]: 1.14; -Log C [2]: 1.29; -Log C [3]: 1.74; -Log C [4]: 0.14; -Log C [5]: 2.36
COc1ccccc1C1=NCC(=O)Nc2ccc(Cl)cc21 |  |  |  |  |  |  |  |  |  | -Log C [1]: 0; -Log C [2]: 1; -Log C [3]: 0.48; -Log C [4]: 0.35; -Log C [5]: 1.6
O=[N+]([O-])c1cc(Cl)c2cccnc2c1O |  |  |  |  | 1.15 |  |  | 1.89 |  | 
COC1/C=C/OC2(C)Oc3c(C)c(O)c4c(O)c(cc(OCC(=O)Nc5ccc(Br)cc5)c4c3C2=O)NC(=O)/C(C)=C\C=C\C(C)C(O)C(C)C(O)C(C)C(OC(C)=O)C1C (configuration not stated) | 6.48 | 6.66 | 6.56 | 5.78 |  |  |  |  |  | 
Cc1ccc2c(c1)C(c1ccccc1)=NCC(=O)N2 |  |  |  |  |  |  |  |  |  | -Log C [1]: 0.4; -Log C [2]: 1.75; -Log C [3]: 0.4; -Log C [4]: 0.51; -Log C [5]: 1.55
O=[N+]([O-])c1ccc2cccnc2c1O |  |  |  |  | 0.48 | 1.28 | 1.13 | 1.8 | 0.28 | 
O=[N+]([O-])c1cc(F)c(O)c2ncccc12 |  |  |  |  | 0.44 | 1.32 | 1.21 | 2.32 | 0.68 | 
COC1/C=C/OC2(C)Oc3c(C)c(O)c4c(O)c(cc(OCC(=O)N(C)CCO)c4c3C2=O)NC(=O)/C(C)=C\C=C\C(C)C(O)C(C)C(O)C(C)C(OC(C)=O)C1C (configuration not stated) | 6.93 | 7.15 | 5.85 | 5.23 |  |  |  |  |  | 
COC1/C=C/OC2(C)Oc3c(C)c(O)c4c(O)c(cc(OCC(=O)N5CCOCC5)c4c3C2=O)NC(=O)/C(C)=C\C=C\C(C)C(O)C(C)C(O)C(C)C(OC(C)=O)C1C (configuration not stated) | 6.44 | 7.26 | 5.84 | 5.74 |  |  |  |  |  | 
COC1/C=C/OC2(C)Oc3c(C)c(O)c4c(O)c(cc(OCC(=O)N5CCCCCC5)c4c3C2=O)NC(=O)/C(C)=C\C=C\C(C)C(O)C(C)C(O)C(C)C(OC(C)=O)C1C (configuration not stated) | 8.32 | 7.92 | 7.45 | 6.45 |  |  |  |  |  | 
Oc1c(I)cc(Br)c2cccnc12 |  |  |  |  | 2.07 | 1.96 | 2.24 | 2.24 | 1.24 | 
Oc1c(Br)cc(F)c2cccnc12 |  |  |  |  | 1.92 | 2.39 | 2.39 | 2.39 | 1.67 | 
N#Cc1ccc2c(c1)C(c1ccccc1)=NCC(=O)N2 |  |  |  |  |  |  |  |  |  | -Log C [1]: 0.54; -Log C [2]: 0.89; -Log C [3]: 0.82; -Log C [4]: 0.41; -Log C [5]: 2.3
Oc1c(I)ccc2cccnc12 |  |  |  |  | 2.13 | 2.43 | 2.43 | 2.43 | 1.48 | 
CCCCN(CCCC)C(=O)COc1cc2c(O)c3c(O)c(C)c4c(c13)C(=O)C(C)(O/C=C/C(OC)C(C)C(OC(C)=O)C(C)C(O)C(C)C(O)C(C)/C=C/C=C(/C)C(=O)N2)O4 (configuration not stated) | 8.46 | 7.86 | 7.46 | 7.16 |  |  |  |  |  | 
C#CCN(CCC)C(=O)COc1cc2c(O)c3c(O)c(C)c4c(c13)C(=O)C(C)(O/C=C/C(OC)C(C)C(OC(C)=O)C(C)C(O)C(C)C(O)C(C)/C=C/C=C(/C)C(=O)N2)O4 (configuration not stated) | 8.44 | 8.62 | 7.14 | 6.97 |  |  |  |  |  | 
Oc1c(I)cc(Cl)c2cccnc12 [CLIOQUINOL] |  |  |  |  | 2.01 |  |  | 2.01 |  | 
